According to patent US20220193076A1, “METHODS OF TREATING BREAST CANCER WITH TUCATINIB” (Seagen Inc., priority 2019, published 2022):

Legend:
[1] = tested on: CYP1A2; test: In vitro enzyme activity / mRNA induction in human hepatocytes; assay type: in vitro ADME
[2] = target: CYP3A4 (Homo sapiens, UniProt P08684); test: In vitro time-dependent inhibition of CYP3A4 (background statement); assay type: in vitro ADME
[3] = target: T1, CYP2C8 (Homo sapiens, UniProt P10632); test: Example 2 Part D: effect of tucatinib on PK of substrate probe repaglinide; assay type: in vivo; set-up: endogenous in cells; host or cells: healthy human subjects, in vivo; conditions: steady-state tucatinib 300 mg BID, probe repaglinide
T1 sequence (P10632 1-490): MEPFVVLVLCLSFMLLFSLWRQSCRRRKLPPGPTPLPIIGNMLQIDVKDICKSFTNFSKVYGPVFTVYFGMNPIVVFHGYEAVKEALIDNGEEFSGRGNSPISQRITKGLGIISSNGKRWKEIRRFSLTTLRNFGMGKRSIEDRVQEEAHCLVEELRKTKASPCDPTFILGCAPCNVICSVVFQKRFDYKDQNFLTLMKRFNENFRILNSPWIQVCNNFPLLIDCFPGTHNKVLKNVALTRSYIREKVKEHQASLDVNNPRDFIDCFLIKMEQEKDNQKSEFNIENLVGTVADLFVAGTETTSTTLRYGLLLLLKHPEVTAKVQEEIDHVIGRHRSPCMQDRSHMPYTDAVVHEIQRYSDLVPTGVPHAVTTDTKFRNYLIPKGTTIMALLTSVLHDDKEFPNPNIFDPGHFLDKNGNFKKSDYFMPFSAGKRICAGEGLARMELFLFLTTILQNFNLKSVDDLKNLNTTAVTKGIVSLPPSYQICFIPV
Method: A Phase 1, open-label, fixed-sequence, 5-part, drug-drug interaction study of tucatinib was conducted to evaluate the effects of CYP3A4 and CYP2C8 inhibition and induction on the pharmacokinetics of tucatinib and to evaluate the effects of tucatinib on the pharmacokinetics of substrates of CYP3A4, CYP2C8, CYP2C9, and P-glycoprotein in healthy male and female subjects.
Part B evaluates the effect of rifampin, a strong inducer of CYP3A4 and CYP2C8, on the PK of tucatinib. […] Part E evaluates the effect of tucatinib on the PK of a substrate probe of the transporter P-gp (digoxin). […] For Parts A, B, and C, tucatinib is given as a single oral dose because evaluating plasma exposures after a single dose of tucatinib is expected to provide an appropriate assessment of the impact of the probe drugs on tucatinib PK. In Parts D and E, tucatinib is given as a multiple-dosing regimen in order to examine its effects on probe drugs at steady state, at which maximal inhibition of CYP2C8, CYP2C9, CYP3A4, and P-gp by tucatinib should be achieved.
Secondary objectives of the study included: (1) assessing the safety and tolerability of tucatinib when administered alone and when co-administered with substrate probes of CYP2C8, CYP2C9, and CYP3A4; and (2) assessing the single-dose PK of tucatinib and assessing the multiple-dose, steady-state PK of tucatinib alone and in the presence of substrate probes of CYP2C8, CYP2C9, and CYP3A4 in healthy subjects.
They were discharged on Day 14 after completion of the in-patient assessments.
On Day 1, each subject received a single oral dose of 0.5 mg of repaglinide. […] From Day 4 to Day 13, each subject received oral doses of 300 mg of tucatinib, twice daily (BID). On Day 11, each subject received a single oral dose of repaglinide. […] Tucatinib was provided as 150-mg tablets (2 tablets for the 300-mg dose), repaglinide was provided as 0.5-mg tablets, olbutamide was provided as 500-mg tablets, and midazolam was provided as a syrup (2 mg/mL; 1 mL syrup for the 2-mg dose). Tucatinib, repaglinide, olbutamide and midazolam were administered before meals preceded by an at least 8-hour overnight fast.
Other noncompartmental PK parameters may be reported. Additionally, blood samples for determination of plasma concentrations of tucatinib and ONT-993 were collected at the time points indicated in FIG. 8. […] A single genotyping blood sample was collected to assess possible effect of CYP polymorphisms or other genetic polymorphisms on the magnitude of drug interactions of tucatinib with probe drugs and substrates.

[4] = target: T2, OCT2 (Homo sapiens, UniProt O15244); test: Inhibition of OCT2 mediated transport of creatinine in transfected MDCK-II cells (Example 3); assay type: in vitro ADME; conditions: probe substrate creatinine, 0.03 to 10 μM
T2 construct: expressed in transfected cells; host or cells: MDCK-II
T2 sequence (O15244 1-555): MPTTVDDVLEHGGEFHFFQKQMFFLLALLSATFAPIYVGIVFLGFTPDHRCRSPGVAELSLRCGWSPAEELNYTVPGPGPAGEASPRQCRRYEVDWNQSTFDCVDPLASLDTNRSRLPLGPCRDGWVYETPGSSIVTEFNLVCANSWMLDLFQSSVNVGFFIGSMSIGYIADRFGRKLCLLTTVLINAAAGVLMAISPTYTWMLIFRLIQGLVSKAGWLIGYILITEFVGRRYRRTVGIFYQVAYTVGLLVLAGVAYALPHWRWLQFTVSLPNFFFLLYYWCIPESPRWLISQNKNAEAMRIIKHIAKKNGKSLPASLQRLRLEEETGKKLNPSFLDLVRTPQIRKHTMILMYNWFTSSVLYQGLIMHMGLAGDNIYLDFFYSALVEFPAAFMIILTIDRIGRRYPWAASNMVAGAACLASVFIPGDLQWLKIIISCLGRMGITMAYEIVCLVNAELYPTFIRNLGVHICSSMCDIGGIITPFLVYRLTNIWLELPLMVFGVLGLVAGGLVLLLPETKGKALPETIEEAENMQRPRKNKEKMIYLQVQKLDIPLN
Method: Substrate dependent inhibition is common among transporters including MATE1 and MATE2-K. In this study, creatinine was used as the probe substrate to assess the inhibitory potency of Tucatinib and ONT-993. OAT2, OCT2, OCT3, MATE1, and MATE2-K are the renal transporters identified to transport creatinine. Tucatinib and its metabolite ONT-993 were tested as potential inhibitors of OAT2, OCT2, MATE1, and MATE2-K mediated transport using creatinine as a probe substrate.
For this study, MDCK-II were maintained in DMEM with low glucose and 10% FBS. Cells were seeded at 60K±10K cells/well on 96-well, transwell membrane plates approximately 24 hours before transfection. Transport assays were carried out approximately 48 hours after transfection. Cells were transfected and treated to express the transporter of interest or treated with a control vector. The transport of creatinine was determined by radiometric detection.
Net transporter mediated uptake of the substrate by each transporter was calculated as follows: Net Transporter Mediated Substrate Uptake (pmol/min/cm^2)=(Cellular accumulation in the presence of the transporter)−(Mean cellular accumulation in the absence of the transporter.
Percent inhibition was calculated as follows: Percent inhibition=100−(100*(transporter mediated uptake)with inhibition/(transporter mediated uptake)without inhibition) […]

Sequence of CYP3A4 (P08684 whole entry): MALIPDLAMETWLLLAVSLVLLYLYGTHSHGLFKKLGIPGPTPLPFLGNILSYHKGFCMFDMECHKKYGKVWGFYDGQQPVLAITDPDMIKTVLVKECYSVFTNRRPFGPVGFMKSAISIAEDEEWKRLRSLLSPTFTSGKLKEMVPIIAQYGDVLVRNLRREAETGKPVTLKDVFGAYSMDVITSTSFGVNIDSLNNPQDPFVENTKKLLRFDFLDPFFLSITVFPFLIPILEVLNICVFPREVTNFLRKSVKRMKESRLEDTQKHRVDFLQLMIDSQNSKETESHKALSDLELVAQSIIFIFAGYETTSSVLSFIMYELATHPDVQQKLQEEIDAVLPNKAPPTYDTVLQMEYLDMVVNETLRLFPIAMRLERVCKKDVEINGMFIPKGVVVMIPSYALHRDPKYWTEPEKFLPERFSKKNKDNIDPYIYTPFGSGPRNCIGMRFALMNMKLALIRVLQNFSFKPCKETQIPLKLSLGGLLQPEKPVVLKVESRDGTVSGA

Compound: Cc1cc(Nc2ncnc3ccc(NC4=NC(C)(C)CO4)cc23)ccc1Oc1ccn2ncnc2c1 [tucatinib]
- Induction of in vitro enzyme activity or messenger ribonucleic acid, CYP1A2 [1]: did not induce
- Time-dependent inhibition of CYP3A4 [2]: no time-dependent inhibition
- Inhibition of CYP2C8 in vivo [3]: weak inhibitor
- IC50 [4]: 107 ± 37.9 nM
